Data: the supplement of paper PMC11451515

Assays:
Assay in all cases: AUC of viability dose-response curve (% viability x log10 dose units); higher = less sensitive
Settings in all cases: 48 h
SEM cells = tested on: SEM cells
In short: (§1)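 Medium-adapted leukemia cells in 1536-well plates, at 500 or 1000 cells/well, were incubated for 48 h at 37°C with library compounds in DMSO at 11 threefold doses from 47 μM to 0.79 nM. CellTiter-Glo One luminescence normalised per plate to DMSO and cell-free wells was fitted with a four-parameter log-logistic model over log10 doses. Area under the curve was integrated from this fit by trapezoidal rule, with curves beyond full viability scaled and failed quality-control curves removed.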

NOMO1 = tested on: NOMO1
In short: as §1

P12-Ichikawa = tested on: P12-Ichikawa
In short: as §1

[1] = RPMI 5 mM glucose + 10% dialyzed FBS

SMILES	AUC of viability dose-response curve (SEM cells; HPLM + 10% dialyzed FBS)	AUC of viability dose-response curve (SEM cells; RPMI 5 mM glucose + 10% FBS)	AUC of viability dose-response curve (SEM cells; [1])	AUC of viability dose-response curve (NOMO1; HPLM + 10% dialyzed FBS)	AUC of viability dose-response curve (NOMO1; RPMI 5 mM glucose + 10% FBS)	AUC of viability dose-response curve (NOMO1; [1])	AUC of viability dose-response curve (P12-Ichikawa; HPLM + 10% dialyzed FBS)	AUC of viability dose-response curve (P12-Ichikawa; RPMI 5 mM glucose + 10% FBS)	AUC of viability dose-response curve (P12-Ichikawa; [1])
NC(=O)c1cccc2cn(-c3ccc([C@@H]4CCCNC4)cc3)nc12	438	448	446	468	456	470	453	441	458
CN1\N=C(N)/C2=C[N]([C@@H]3O[C@H](CO[P](O)(O)=O)[C@@H](O)[C@H]3O)C4=C2C1=NC=N4				341	393	347	353	329	346
CCC(=C/[C@H](C)C/C=C/C(C)=C/[C@@H](C)C(=O)[C@@H](C)[C@H](O)[C@@H](C)C/C(C)=C/C(=O)O)/C=C/[C@@H]1OC(=O)C=C[C@@H]1C				351	365	355	361	355	359
CCCCCCCCCC(=O)N[C@@H](Cc1c[nH]c2ccccc12)C(=O)N[C@H](CC(N)=O)C(=O)N[C@@H](CC(=O)O)C(=O)N[C@@H]1C(=O)NCC(=O)N[C@@H](CCCN)C(=O)N[C@@H](CC(=O)O)C(=O)N[C@H](C)C(=O)N[C@@H](CC(=O)O)C(=O)NCC(=O)N[C@H](CO)C(=O)N[C@@H]([C@@H](C)CC(=O)O)C(=O)N[C@@H](CC(=O)c2ccccc2N)C(=O)O[C@@H]1C	458	455	469	459	466	469	459	454	460
CC1(C)CNc2cc(NC(=O)c3cccnc3NCc3ccncc3)ccc21				419	468	470	461	446	455
O=C\1N(N\C=C1[N]2C=CN=N2)C3=NC=NC(=C3)N4CCOCC4				221	210	222	211	225	248
CCC\C1=C\C(=O)NC(=S)N1				407	421	452	413	399	425
O=C(Oc1ccc([N+](=O)[O-])cc1)N1CCC(C(O)(c2ccc3c(c2)OCO3)c2ccc3c(c2)OCO3)CC1	396	379	418				439	432	411
CC(C)C[C@H](NC(=O)CNC(=O)c1cc(Cl)ccc1Cl)B(O)O	190	190	177						
Cn1c(=O)n(-c2ccc(C(C)(C)C#N)cc2)c2c3cc(-c4cnc5ccccc5c4)ccc3ncc21				344	354	315	337	315	325
CNC[C@H](O)c1cccc(O)c1	410	388	417						
C[S+](=O)([O-])c1ccc(C(=O)Nc2ccc(Cl)c(-c3ccccn3)c2)c(Cl)c1				445	468	465	464	454	462
CC(C)c1cc(C(=O)N2Cc3ccc(CN4CCN(C)CC4)cc3C2)c(O)cc1O				320	317	323	374	342	348
CN1\C(=C(\O)C2=C(C=CC=C2)[S+]1([O-])=O)C(=O)NC3=CC=CC=N3				422	428	461	397	400	425
COc1ncnc(N[S+](=O)([O-])c2ccc(N)cc2)c1OC				348	394	404	341	320	316
